The text below walks through data of US8357406B2, “Method for preparing raw material for functional foods from barley or wheat seeds” (priority 2009, dated 2013).

Each structure is given as a SMILES string.

What all share (format): biochemical
The target of one test is xanthine oxidase (Homo sapiens, UniProt P47989). The experiment in a line: Inhibitory activity against xanthine oxidase (uric acid production, absorbance at 290 nm). The note with it: samples 1 mg/mL, 50 mU/ml xanthine oxidase; average±SD of three measurements. The protocol: Inhibitory activity against xanthine oxidase was evaluated by the level of the uric acid produced in the xanthine/xanthine oxidase system, which can be quantitatively analyzed by absorbance at 290 nm.
100 μL of 200 mM phosphate buffer (pH 7.5) containing 0.5 mM xanthine and 1 mM EDTA was mixed with 100 μL of the samples (1 mg/mL) to which 50 mU/ml xanthine oxidase was then added to induce the production of uric acid. The produced uric acid was quantitatively analyzed by absorbance at 290 nm.
Allopurinol, a xanthine […] inhibitor used to treat gout, was used as a positive control.

The nature of test [1]: Superoxide anion radical scavenging activity (NBT reduction method, xanthine/xanthine oxidase system). The following applies: 25 mU/mL xanthine oxidase, 0.05 mM xanthine, 0.6 mM NBT, 25° C. 20 min, absorbance 560 nm; average±SD of three measurements. The protocol:
Superoxide anion radical scavenging activity was evaluated by the NBT (nitro blue tetrazolium) reduction method in which NBT is reduced by the superoxide anion radicals formed in a xanthine/xanthine oxydase system.
Along with 25 mU/mL of xanthine oxidase, the samples were added at various concentrations to 1.5 mL of a reaction solution containing 50 mM potassium phosphate buffer (pH 7.8), 0.05 mM xanthine, and 0.6 mM NBT, and incubated at 25° C. for 20 min before measuring absorbance at 560 nm.
(§1) The data are average±standard deviation of three measurements.
For a positive control, the commercially available antioxidant BHA ([…], butylated hydroxy anisole) was employed.

Test [2] can be described thus: DPPH radical scavenging activity. The following applies: 0.4 mM DPPH, room temperature 10 min, absorbance 517 nm; average±SD of three measurements. The protocol: For use in this assay, the samples prepared in the Examples and Comparative Examples were lyophilised and/or dried and pulverized into powders.
The samples were evaluated for DPPH radical scavenging activity according to the Brand-Williams method (Brand-Williams et al., Use of a free radical method to evaluate antioxidant activity. Food Sci. Technol. 28(1): 25-30, (1995)). The samples were added at various concentrations to 0.4 mM DPPH which was then incubated at room temperature for 10 min, followed by measuring absorbance at 517 nm.
as §1
For the positive control, the commercially available antioxidant BHA ([…], butylated hydroxy anisole) was employed.
(Loss of DPPH colour is used to gauge radical scavenging.)

Sequence of xanthine oxidase (P47989 whole entry, species assumed): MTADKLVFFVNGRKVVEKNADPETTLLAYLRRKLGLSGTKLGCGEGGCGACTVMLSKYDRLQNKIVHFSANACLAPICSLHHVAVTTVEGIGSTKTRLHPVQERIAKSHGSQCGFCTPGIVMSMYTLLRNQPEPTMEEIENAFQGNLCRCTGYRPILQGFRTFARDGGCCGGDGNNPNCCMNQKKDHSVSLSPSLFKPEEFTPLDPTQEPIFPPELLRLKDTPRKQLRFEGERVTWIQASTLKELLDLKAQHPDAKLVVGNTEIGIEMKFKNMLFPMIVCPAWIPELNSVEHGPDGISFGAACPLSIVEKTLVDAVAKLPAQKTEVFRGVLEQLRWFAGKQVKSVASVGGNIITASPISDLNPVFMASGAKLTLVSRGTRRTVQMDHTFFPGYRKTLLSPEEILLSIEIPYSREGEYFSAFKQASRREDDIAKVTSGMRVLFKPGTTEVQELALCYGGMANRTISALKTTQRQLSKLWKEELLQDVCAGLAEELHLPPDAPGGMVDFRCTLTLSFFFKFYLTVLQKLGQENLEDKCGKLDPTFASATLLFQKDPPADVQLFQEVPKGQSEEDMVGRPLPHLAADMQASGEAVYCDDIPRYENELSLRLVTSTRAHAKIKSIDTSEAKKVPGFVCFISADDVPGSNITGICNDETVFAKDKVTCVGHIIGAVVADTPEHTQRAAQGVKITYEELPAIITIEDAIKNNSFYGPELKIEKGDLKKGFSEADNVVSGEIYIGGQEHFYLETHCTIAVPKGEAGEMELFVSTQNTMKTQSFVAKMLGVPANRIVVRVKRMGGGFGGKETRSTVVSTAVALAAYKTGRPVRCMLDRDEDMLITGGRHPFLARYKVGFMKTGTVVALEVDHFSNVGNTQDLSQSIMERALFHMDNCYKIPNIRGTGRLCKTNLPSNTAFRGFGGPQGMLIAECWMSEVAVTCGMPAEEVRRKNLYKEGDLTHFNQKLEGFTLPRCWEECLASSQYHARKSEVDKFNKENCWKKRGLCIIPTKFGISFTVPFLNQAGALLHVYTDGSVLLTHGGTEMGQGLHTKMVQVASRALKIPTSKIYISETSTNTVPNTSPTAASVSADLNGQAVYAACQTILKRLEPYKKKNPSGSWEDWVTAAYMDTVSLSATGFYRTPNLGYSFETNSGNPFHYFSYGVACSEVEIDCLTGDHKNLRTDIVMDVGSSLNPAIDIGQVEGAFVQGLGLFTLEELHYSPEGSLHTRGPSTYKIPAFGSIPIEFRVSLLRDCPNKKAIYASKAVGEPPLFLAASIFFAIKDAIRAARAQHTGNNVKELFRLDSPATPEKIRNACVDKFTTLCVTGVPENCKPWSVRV

Regarding `Oc1ncnc2[nH]ncc12` [Allopurinol], the “Xanthine oxidase Inhibition (%)” value on xanthine oxidase came to 88.2 ± 2.1%. With `COc1ccc(O)c(C(C)(C)C)c1` [BHA, butylated hydroxy anisole], the “Superoxide Anion Radical Scavenging Activity IC50” value in test [1] turned out to be 1120 ± 240 µg/mL. The “DPPH Radical Scavenging Activity IC50” value in test [2] came out at 620 ± 110 µg/mL.
